Laboratory results taken from patent US20080009418A1, “Selective Inhibitors” (Alchemia LTD., priority 2004, published 2008).

What was measured:
Human κ-Opioid (KOP) = target: T1, Human κ-Opioid (KOP) (Homo sapiens, UniProt P41145); assay: Radioligand binding, human κ-opioid (KOP) membranes, filtration, [3H]-Diprenorphine; conditions: compound at 10 μM; for A2 radioligand binding inhibition: human κ-opioid (KOP) membranes; for A2: inhibition of radioligand binding: human KOP membranes
T1 construct: purchased Perkin Elmer Biosignal
Procedure, shortened: (§1)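 Percent inhibition of radioligand binding measured on recombinant human membranes: NK1 with [125I]-Substance P, KOP with [3H]-Diprenorphine. Incubation 1 h at room temperature, then harvest onto 0.3% PEI-soaked filters, cold Tris-HCl pH 7.4 washes and scintillation counting; non-specific binding from reference ligand wells.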

Human opioid (ORL1) = target: T2, Human opioid (ORL1) (Homo sapiens, UniProt P41146); assay: Radioligand binding, human opioid ORL1 membranes, FlashPlate, [125I]-Nociceptin; conditions: compound at 10 μM; for A10 radioligand binding inhibition / A10: inhibition of radioligand binding: human ORL1 membranes
T2 construct: purchased Perkin Elmer Biosignal
Procedure, shortened: (§2)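 Cloned human receptor membranes were coated onto FlashPlate wells and incubated with radioligand and compound (added from a 0.5 mM DMSO daughter plate) for 1 hour at room temperature in the dark. Scintillation counting gave percent inhibition, with DMSO defining total and reference ligand defining non-specific binding.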

Mouse urotensin (mUR2) = target: T3, Mouse urotensin (mUR2) (Mus musculus, UniProt Q8VIH9); assay: Radioligand binding, mouse urotensin mUR2 membranes, FlashPlate, [125I]-Urotensin II; conditions: compound at 10 μM; for A11 radioligand binding inhibition: mouse urotensin mUR2 membranes; for A11: inhibition of radioligand binding: mouse mUR2 membranes
T3 construct: purchased Perkin Elmer Biosignal
T3 sequence (Q8VIH9 1-385): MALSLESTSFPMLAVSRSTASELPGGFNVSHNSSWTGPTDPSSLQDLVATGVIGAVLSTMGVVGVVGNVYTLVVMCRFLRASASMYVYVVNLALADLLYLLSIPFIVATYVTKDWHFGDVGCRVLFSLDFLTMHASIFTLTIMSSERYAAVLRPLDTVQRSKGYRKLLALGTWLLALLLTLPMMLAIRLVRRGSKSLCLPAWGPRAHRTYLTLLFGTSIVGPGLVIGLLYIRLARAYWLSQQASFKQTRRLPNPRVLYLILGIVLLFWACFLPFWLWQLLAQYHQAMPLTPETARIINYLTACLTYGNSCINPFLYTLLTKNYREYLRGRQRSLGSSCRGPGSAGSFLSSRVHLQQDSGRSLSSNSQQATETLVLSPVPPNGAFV
Procedure, shortened: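 Cloned mouse urotensin (mUR2) receptor membranes from Perkin Elmer Biosignal were immobilized in FlashPlate microplates using a proprietary coating. Each well got 19.5 μl buffer, then 0.5 μl of DMSO, reference ligand, or compound. Adding 5 μl of [125I]-Urotensin II, diluted to 5× final concentration in binding buffer, started binding. Plates were sealed with TopSeal-A and incubated 1 hour at room temperature in the dark. Wells were counted for 30 seconds each on a TopCount after a 60-second delay, and percentage inhibition was calculated.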

Human μ-opioid (MOP) = target: T4, Human μ-opioid (MOP) (Homo sapiens, UniProt P35372); assay: Radioligand binding, human μ-opioid (MOP) membranes, FlashPlate, [3H]-Naloxone; conditions: compound at 10 μM; for A7 radioligand binding inhibition: human μ-opioid (MOP) membranes; for A7: inhibition of radioligand binding: human MOP membranes
T4 construct: purchased Perkin Elmer Biosignal
Procedure, shortened: as §2

[1] = target: T5, Human neuropeptide Y (NPY-Y1) (Homo sapiens, UniProt P25929); assay: Radioligand binding, human neuropeptide Y NPY-Y1 membranes, FlashPlate, [125I]-PYY; conditions: compound at 10 μM; for A9 radioligand binding inhibition / A9: inhibition of radioligand binding: human NPY-Y1 membranes
T5 construct: purchased Perkin Elmer Biosignal
T5 sequence (P25929 1-384): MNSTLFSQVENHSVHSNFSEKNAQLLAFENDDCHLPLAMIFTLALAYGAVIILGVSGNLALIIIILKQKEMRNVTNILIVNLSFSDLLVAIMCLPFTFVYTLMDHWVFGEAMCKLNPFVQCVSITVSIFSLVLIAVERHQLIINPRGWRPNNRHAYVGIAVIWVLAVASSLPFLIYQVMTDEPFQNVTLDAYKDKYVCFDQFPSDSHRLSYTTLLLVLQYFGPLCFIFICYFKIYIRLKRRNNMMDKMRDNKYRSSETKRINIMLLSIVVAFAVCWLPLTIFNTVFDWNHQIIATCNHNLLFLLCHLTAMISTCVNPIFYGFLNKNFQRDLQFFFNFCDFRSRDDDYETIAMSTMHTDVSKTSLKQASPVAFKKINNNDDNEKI
Procedure, shortened: as §2

Human melanocortin (MC5) = target: T6, Human melanocortin (MC5) (Homo sapiens, UniProt P33032); assay: Radioligand binding, human melanocortin MC5 membranes, FlashPlate, [125I]-NDP-αMSH; conditions: compound at 10 μM; for A5 radioligand binding inhibition: human melanocortin MC5 membranes; for A5: inhibition of radioligand binding: human MC5 membranes
T6 construct: purchased Perkin Elmer Biosignal
Procedure, shortened: as §2

Human neurokinin (NK1) = target: T7, Human neurokinin (NK1) (Homo sapiens, UniProt P25103); assay: Radioligand binding, human neurokinin NK1 membranes, filtration, [125I]-Substance P; conditions: compound at 10 μM; for A8 radioligand binding inhibition: human neurokinin NK1 membranes; for A8: inhibition of radioligand binding: human NK1 membranes
T7 construct: purchased Perkin Elmer Biosignal
Procedure, shortened: as §1

[2] = target: T8, Human melanin-concentrating hormone (MCH1) (Homo sapiens, UniProt Q99705); assay: Radioligand binding, human melanin-concentrating hormone MCH1 membranes, FlashPlate, [125I]-S36057; conditions: compound at 10 μM; for A6 radioligand binding inhibition: human MCH1 membranes; for A6: inhibition of radioligand binding: [125I]-S36057, human MCH1 membranes
T8 construct: purchased Perkin Elmer Biosignal
Procedure, shortened: as §2

Human δ-opioid (DOP) = target: T9, Human δ-opioid (DOP) (Homo sapiens, UniProt P41143); assay: Radioligand binding, human δ-opioid (DOP) membranes, FlashPlate, [3H]-Bremazocine; conditions: compound at 10 μM; for A1 radioligand binding inhibition: human δ-opioid (DOP) membranes; for A1: inhibition of radioligand binding: human DOP membranes
T9 construct: purchased Perkin Elmer Biosignal
Procedure, shortened: as §2

Human Melanocortin (MC3) = target: T10, Human Melanocortin (MC3) (Homo sapiens, UniProt P41968); assay: Radioligand binding, human melanocortin MC3 membranes, FlashPlate, [125I]-NDP-αMSH; conditions: compound at 10 μM; for A3 radioligand binding inhibition: human melanocortin MC3 membranes; for A3: inhibition of radioligand binding: human MC3 membranes
T10 construct: purchased Perkin Elmer Biosignal
Procedure, shortened: as §2

Human Melanocortin (MC4) = target: T11, Human Melanocortin (MC4) (Homo sapiens, UniProt P32245); assay: Radioligand binding, human melanocortin MC4 membranes, FlashPlate, [125I]-NDP-αMSH; conditions: compound at 10 μM; for A4 radioligand binding inhibition: human melanocortin MC4 membranes; for A4: inhibition of radioligand binding: human MC4 membranes
T11 construct: purchased Perkin Elmer Biosignal
Procedure, shortened: as §2

T7 sequence (P25103 whole entry): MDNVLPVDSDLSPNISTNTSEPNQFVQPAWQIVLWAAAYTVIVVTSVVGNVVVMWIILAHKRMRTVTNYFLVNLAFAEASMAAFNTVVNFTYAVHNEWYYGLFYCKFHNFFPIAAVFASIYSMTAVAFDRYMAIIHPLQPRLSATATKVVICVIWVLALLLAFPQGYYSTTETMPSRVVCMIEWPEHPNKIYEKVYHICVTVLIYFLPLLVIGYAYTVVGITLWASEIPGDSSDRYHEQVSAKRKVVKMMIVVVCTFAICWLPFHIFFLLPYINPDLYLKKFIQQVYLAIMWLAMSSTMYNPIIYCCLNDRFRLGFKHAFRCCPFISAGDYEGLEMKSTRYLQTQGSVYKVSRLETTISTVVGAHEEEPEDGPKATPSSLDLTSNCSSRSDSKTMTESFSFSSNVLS
T2 sequence (P41146 whole entry): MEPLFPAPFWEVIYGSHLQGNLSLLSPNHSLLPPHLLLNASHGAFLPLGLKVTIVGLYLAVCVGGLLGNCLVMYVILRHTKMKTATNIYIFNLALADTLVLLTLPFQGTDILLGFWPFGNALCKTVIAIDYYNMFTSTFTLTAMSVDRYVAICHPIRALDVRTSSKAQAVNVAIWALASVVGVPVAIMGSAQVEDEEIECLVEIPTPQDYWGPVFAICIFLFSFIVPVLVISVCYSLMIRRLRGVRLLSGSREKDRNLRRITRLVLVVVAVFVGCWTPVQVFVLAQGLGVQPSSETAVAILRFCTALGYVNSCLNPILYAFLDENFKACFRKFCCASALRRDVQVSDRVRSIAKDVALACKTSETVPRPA
T9 sequence (P41143 whole entry): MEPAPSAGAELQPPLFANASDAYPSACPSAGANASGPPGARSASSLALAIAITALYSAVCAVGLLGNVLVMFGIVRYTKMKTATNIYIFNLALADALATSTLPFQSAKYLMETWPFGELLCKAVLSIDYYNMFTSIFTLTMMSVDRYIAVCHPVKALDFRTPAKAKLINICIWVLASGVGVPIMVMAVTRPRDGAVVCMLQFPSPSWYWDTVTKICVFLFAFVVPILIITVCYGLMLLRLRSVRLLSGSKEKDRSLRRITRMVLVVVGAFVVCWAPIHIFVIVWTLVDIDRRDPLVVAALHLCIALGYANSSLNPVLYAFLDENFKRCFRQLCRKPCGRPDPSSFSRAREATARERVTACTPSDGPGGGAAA
T10 sequence (P41968 whole entry): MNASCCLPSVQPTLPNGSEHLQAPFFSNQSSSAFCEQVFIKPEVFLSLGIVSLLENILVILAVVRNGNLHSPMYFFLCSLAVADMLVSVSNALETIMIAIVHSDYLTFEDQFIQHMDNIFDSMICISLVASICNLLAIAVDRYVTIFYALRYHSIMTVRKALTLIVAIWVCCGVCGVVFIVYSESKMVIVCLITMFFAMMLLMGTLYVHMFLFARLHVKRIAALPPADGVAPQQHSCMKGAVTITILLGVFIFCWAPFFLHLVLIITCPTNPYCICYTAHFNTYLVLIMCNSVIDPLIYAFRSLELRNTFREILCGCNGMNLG
T1 sequence (P41145 whole entry): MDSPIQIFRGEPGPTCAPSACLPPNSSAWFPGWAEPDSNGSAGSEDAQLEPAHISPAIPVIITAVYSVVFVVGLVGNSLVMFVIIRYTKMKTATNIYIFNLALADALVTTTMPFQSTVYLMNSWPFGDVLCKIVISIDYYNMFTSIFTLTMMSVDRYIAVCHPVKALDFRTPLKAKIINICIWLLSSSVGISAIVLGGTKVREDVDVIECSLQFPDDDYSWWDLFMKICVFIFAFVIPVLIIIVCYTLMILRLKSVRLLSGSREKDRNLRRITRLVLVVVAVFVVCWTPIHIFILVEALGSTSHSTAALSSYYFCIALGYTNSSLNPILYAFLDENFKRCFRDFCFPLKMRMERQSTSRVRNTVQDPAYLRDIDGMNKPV
T11 sequence (P32245 whole entry): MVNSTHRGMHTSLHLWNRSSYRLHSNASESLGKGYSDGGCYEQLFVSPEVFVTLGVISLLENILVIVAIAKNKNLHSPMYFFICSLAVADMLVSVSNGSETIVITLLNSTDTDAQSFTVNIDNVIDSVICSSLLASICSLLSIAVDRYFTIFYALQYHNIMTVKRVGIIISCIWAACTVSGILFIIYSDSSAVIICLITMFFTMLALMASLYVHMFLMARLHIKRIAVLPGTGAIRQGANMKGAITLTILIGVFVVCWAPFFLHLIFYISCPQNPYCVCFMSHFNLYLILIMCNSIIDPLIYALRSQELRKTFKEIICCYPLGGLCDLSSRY
T6 sequence (P33032 whole entry): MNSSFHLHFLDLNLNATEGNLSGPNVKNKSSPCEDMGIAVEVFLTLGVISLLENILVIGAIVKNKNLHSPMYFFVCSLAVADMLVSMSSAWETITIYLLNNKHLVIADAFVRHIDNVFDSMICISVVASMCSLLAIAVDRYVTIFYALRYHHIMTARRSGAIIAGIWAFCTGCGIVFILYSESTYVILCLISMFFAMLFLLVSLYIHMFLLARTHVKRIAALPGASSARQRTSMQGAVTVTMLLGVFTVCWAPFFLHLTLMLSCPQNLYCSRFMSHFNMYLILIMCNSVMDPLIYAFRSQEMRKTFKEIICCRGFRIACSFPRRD
T4 sequence (P35372 whole entry): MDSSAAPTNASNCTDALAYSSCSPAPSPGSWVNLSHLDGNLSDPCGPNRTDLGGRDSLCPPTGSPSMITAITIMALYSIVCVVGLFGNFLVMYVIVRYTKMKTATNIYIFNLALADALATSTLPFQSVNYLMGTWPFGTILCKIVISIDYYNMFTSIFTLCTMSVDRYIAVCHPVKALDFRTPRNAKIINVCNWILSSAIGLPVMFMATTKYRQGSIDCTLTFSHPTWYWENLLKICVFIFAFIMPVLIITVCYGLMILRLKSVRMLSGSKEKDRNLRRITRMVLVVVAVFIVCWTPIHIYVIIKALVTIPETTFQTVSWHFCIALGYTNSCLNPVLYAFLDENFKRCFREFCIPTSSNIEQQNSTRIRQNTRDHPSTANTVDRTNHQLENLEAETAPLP
T8 sequence (Q99705 whole entry): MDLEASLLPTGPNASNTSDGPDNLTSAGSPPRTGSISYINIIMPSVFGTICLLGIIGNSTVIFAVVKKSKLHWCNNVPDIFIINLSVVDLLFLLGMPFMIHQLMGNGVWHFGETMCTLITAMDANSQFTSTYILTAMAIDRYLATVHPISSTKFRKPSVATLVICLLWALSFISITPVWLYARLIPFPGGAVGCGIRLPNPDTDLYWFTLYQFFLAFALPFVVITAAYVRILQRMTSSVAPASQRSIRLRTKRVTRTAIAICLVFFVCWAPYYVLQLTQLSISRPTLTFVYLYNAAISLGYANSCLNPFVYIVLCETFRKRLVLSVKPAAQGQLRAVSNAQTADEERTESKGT

SMILES	A2 radioligand binding inhibition (Human κ-Opioid (KOP))	A10 radioligand binding inhibition (Human opioid (ORL1))	A11 radioligand binding inhibition (Mouse urotensin (mUR2))	A7 radioligand binding inhibition (Human μ-opioid (MOP))	A9 radioligand binding inhibition [1]	A5 radioligand binding inhibition (Human melanocortin (MC5))	A8 radioligand binding inhibition (Human neurokinin (NK1))	A6 radioligand binding inhibition [2]	A1 radioligand binding inhibition (Human δ-opioid (DOP))	A3 radioligand binding inhibition (Human Melanocortin (MC3))	A4 radioligand binding inhibition (Human Melanocortin (MC4))	A2: inhibition of radioligand binding (Human κ-Opioid (KOP); [3H]-Diprenorphine)	A10: inhibition of radioligand binding (Human opioid (ORL1); [125I]-Nociceptin)	A11: inhibition of radioligand binding (Mouse urotensin (mUR2); [125I]-Urotensin II)	A7: inhibition of radioligand binding (Human μ-opioid (MOP); [3H]-Naloxone)	A9: inhibition of radioligand binding ([1]; [125I]-PYY)	A5: inhibition of radioligand binding (Human melanocortin (MC5); [125I]-NDP-αMSH)	A8: inhibition of radioligand binding (Human neurokinin (NK1); [125I]-Substance P)	A6: inhibition of radioligand binding [2]	A1: inhibition of radioligand binding (Human δ-opioid (DOP); [3H]-Bremazocine)	other results
COCC1OC(OCc2ccccc2)C(NC(=O)CCN)C(OCc2ccccc2)C1O (stereo not shown) [compound 172]																					A2 radioligand binding, percentage inhibition (Human κ-Opioid (KOP); [3H]-Diprenorphine): − (“−” indicates less than 50% inhibition at 10 μM); A10 radioligand binding, percentage inhibition (Human opioid (ORL1); [125I]-Nociceptin): − (“−” indicates less than 50% inhibition at 10 μM); A11 radioligand binding, percentage inhibition (Mouse urotensin (mUR2); [125I]-Urotensin II): − (“−” indicates less than 50% inhibition at 10 μM); A7 radioligand binding, percentage inhibition (Human μ-opioid (MOP); [3H]-Naloxone): − (“−” indicates less than 50% inhibition at 10 μM); A9 radioligand binding, percentage inhibition ([1]; [125I]-PYY): − (“−” indicates less than 50% inhibition at 10 μM); A5 radioligand binding, percentage inhibition (Human melanocortin (MC5); [125I]-NDP-αMSH): − (“−” indicates less than 50% inhibition at 10 μM); A8 radioligand binding, percentage inhibition (Human neurokinin (NK1); [125I]-Substance P): + (“+” indicates greater than 50% inhibition at 10 μM); A6 radioligand binding, percentage inhibition ([2]; [125I]-S36057): − (“−” indicates less than 50% inhibition at 10 μM); A1 radioligand binding, percentage inhibition (Human δ-opioid (DOP); [3H]-Bremazocine): − (“−” indicates less than 50% inhibition at 10 μM); A3 radioligand binding, percentage inhibition (Human Melanocortin (MC3); [125I]-NDP-αMSH): − (“−” indicates less than 50% inhibition at 10 μM); A4 radioligand binding, percentage inhibition (Human Melanocortin (MC4); [125I]-NDP-αMSH): − (“−” indicates less than 50% inhibition at 10 μM)
CO[C@H]1[C@H](O)[C@@H](COCc2ccc3ccccc3c2)OC(OCc2ccc(-c3ccccc3)cc2)[C@@H]1NC(=O)CCCNC(=N)N (stereo partly shown) [compound 57]	+ (“+” indicates greater than 50% inhibition at 10 μM)	+ (“+” indicates greater than 50% inhibition at 10 μM)	− (“−” indicates less than 50% inhibition at 10 μM)	+ (“+” indicates greater than 50% inhibition at 10 μM)	− (“−” indicates less than 50% inhibition at 10 μM)	+ (“+” indicates greater than 50% inhibition at 10 μM)	+ (“+” indicates greater than 50% inhibition at 10 μM)	− (“−” indicates less than 50% inhibition at 10 μM)	− (“−” indicates less than 50% inhibition at 10 μM)	+ (“+” indicates greater than 50% inhibition at 10 μM)	+ (“+” indicates greater than 50% inhibition at 10 μM)										
N=C(N)NCC(=O)NC1C(OCc2ccc(-c3ccccc3)cc2)OC(COCc2ccc3ccccc3c2)C(O)C1OCc1ccc2ccccc2c1 (stereo not shown) [compound 402]												− (“−” indicates less than 50% inhibition at 10 μM)	+ (“+” indicates greater than 50% inhibition at 10 μM)	− (“−” indicates less than 50% inhibition at 10 μM)	− (“−” indicates less than 50% inhibition at 10 μM)	− (“−” indicates less than 50% inhibition at 10 μM)	+ (“+” indicates greater than 50% inhibition at 10 μM)	+ (“+” indicates greater than 50% inhibition at 10 μM)	+ (“+” indicates greater than 50% inhibition at 10 μM)	− (“−” indicates less than 50% inhibition at 10 μM)	A3: inhibition of radioligand binding (Human Melanocortin (MC3); [125I]-NDP-αMSH): + (“+” indicates greater than 50% inhibition at 10 μM); A4: inhibition of radioligand binding (Human Melanocortin (MC4); [125I]-NDP-αMSH): + (“+” indicates greater than 50% inhibition at 10 μM)
N=C(N)NCCC(=O)NC1C(OCc2ccc(Cl)cc2)OC(COCc2ccccc2)C(O)C1OCc1ccc(-c2ccccc2)cc1 (stereo not shown) [compound 433]												− (“−” indicates less than 50% inhibition at 10 μM)	− (“−” indicates less than 50% inhibition at 10 μM)	− (“−” indicates less than 50% inhibition at 10 μM)	− (“−” indicates less than 50% inhibition at 10 μM)	− (“−” indicates less than 50% inhibition at 10 μM)	+ (“+” indicates greater than 50% inhibition at 10 μM)	+ (“+” indicates greater than 50% inhibition at 10 μM)	+ (“+” indicates greater than 50% inhibition at 10 μM)	− (“−” indicates less than 50% inhibition at 10 μM)	A3: inhibition of radioligand binding (Human Melanocortin (MC3); [125I]-NDP-αMSH): − (“−” indicates less than 50% inhibition at 10 μM); A4: inhibition of radioligand binding (Human Melanocortin (MC4); [125I]-NDP-αMSH): + (“+” indicates greater than 50% inhibition at 10 μM)
CO[C@H]1[C@H](O)[C@@H](COCc2ccc3ccccc3c2)OC(OCc2ccc3ccccc3c2)[C@@H]1NC(=O)CCCNC(=N)N (stereo partly shown) [compound 73]	+ (“+” indicates greater than 50% inhibition at 10 μM)	+ (“+” indicates greater than 50% inhibition at 10 μM)	− (“−” indicates less than 50% inhibition at 10 μM)	+ (“+” indicates greater than 50% inhibition at 10 μM)	− (“−” indicates less than 50% inhibition at 10 μM)	+ (“+” indicates greater than 50% inhibition at 10 μM)	+ (“+” indicates greater than 50% inhibition at 10 μM)	− (“−” indicates less than 50% inhibition at 10 μM)	− (“−” indicates less than 50% inhibition at 10 μM)	− (“−” indicates less than 50% inhibition at 10 μM)	− (“−” indicates less than 50% inhibition at 10 μM)										
